Measured values from ChEMBL document CHEMBL4507290 (2021).

Key:
[1] = molecular target: Tyrosine-protein kinase Srms (Homo sapiens) (UniProt Q9H3Y6); conditions: Compound concentration 1000.0 nM
[2] = molecular target: Death-associated protein kinase 1 (Homo sapiens) (UniProt P53355); conditions: Compound concentration 1000.0 nM
[3] = molecular target: Discoidin domain-containing receptor 2 (Homo sapiens) (UniProt Q16832); conditions: Compound concentration 1000.0 nM
[4] = test system: Phosphatidylinositol 4,5-bisphosphate 3-kinase catalytic subunit alpha isoform (Homo sapiens), P42336 [E545K]; conditions: Compound concentration 1000.0 nM
[5] = molecular target: Cyclin-dependent kinase 19 (Homo sapiens) (UniProt Q9BWU1); conditions: Compound concentration 1000.0 nM
[6] = molecular target: Serine/threonine-protein kinase D3 (Homo sapiens) (UniProt O94806); conditions: Compound concentration 1000.0 nM
[7] = test system: Epidermal growth factor receptor (Homo sapiens), P00533 [UNDEFINED MUTATION]; conditions: Compound concentration 1000.0 nM
[8] = molecular target: Macrophage colony-stimulating factor 1 receptor (Homo sapiens) (UniProt P07333); conditions: Compound concentration 1000.0 nM
[9] = molecular target: Ribosomal protein S6 kinase alpha-3 (Homo sapiens) (UniProt P51812); conditions: Compound concentration 1000.0 nM
[10] = molecular target: Cyclin-G-associated kinase (Homo sapiens) (UniProt O14976); conditions: Compound concentration 1000.0 nM
[11] = molecular target: Receptor tyrosine-protein kinase erbB-2 (Homo sapiens) (UniProt P04626); conditions: Compound concentration 1000.0 nM
[12] = molecular target: Phosphatidylinositol 4,5-bisphosphate 3-kinase catalytic subunit beta isoform (Homo sapiens) (UniProt P42338); conditions: Compound concentration 1000.0 nM
[13] = molecular target: Cyclin-dependent kinase-like 2 (Homo sapiens) (UniProt Q92772); conditions: Compound concentration 1000.0 nM
[14] = molecular target: Serine/threonine-protein kinase MRCK gamma (Homo sapiens) (UniProt Q6DT37); conditions: Compound concentration 1000.0 nM
[15] = molecular target: Serine/threonine-protein kinase Chk1 (Homo sapiens) (UniProt O14757); conditions: Compound concentration 1000.0 nM
[16] = molecular target: Calcium/calmodulin-dependent protein kinase kinase 2 (Homo sapiens) (UniProt Q96RR4); conditions: Compound concentration 1000.0 nM
[17] = molecular target: Proto-oncogene tyrosine-protein kinase ROS (Homo sapiens) (UniProt P08922); conditions: Compound concentration 1000.0 nM
[18] = molecular target: Mitogen-activated protein kinase 12 (Homo sapiens) (UniProt P53778); conditions: Compound concentration 1000.0 nM
[19] = molecular target: Serine/threonine-protein kinase Nek4 (Homo sapiens) (UniProt P51957); conditions: Compound concentration 1000.0 nM
[20] = molecular target: Ephrin type-A receptor 4 (Homo sapiens) (UniProt P54764); conditions: Compound concentration 1000.0 nM
[21] = molecular target: Ephrin type-A receptor 6 (Homo sapiens) (UniProt Q9UF33); conditions: Compound concentration 1000.0 nM
[22] = molecular target: Mitogen-activated protein kinase kinase kinase 3 (Homo sapiens) (UniProt Q99759); conditions: Compound concentration 1000.0 nM
[23] = molecular target: Mitogen-activated protein kinase kinase kinase 1 (Homo sapiens) (UniProt Q13233); conditions: Compound concentration 1000.0 nM
[24] = molecular target: Testis-specific serine/threonine-protein kinase 1 (Homo sapiens) (UniProt Q9BXA7); conditions: Compound concentration 1000.0 nM
[25] = test system: ALK tyrosine kinase receptor (Homo sapiens), Q9UM73 [C1156Y]; conditions: Compound concentration 1000.0 nM
[26] = molecular target: Myosin light chain kinase family member 4 (Homo sapiens) (UniProt Q86YV6); conditions: Compound concentration 1000.0 nM
[27] = molecular target: GABA-A receptor; anion channel (Rattus norvegicus) (UniProt O09028+P15431+P18506+P18508+P19969+P20236+P23574+P23576+P28471+P28473+P30191+P62813+P63079+P63138+Q91ZM7+Q9ES14); conditions: Compound concentration 10.0 uM
[28] = molecular target: G protein-coupled receptor kinase 3 (Homo sapiens) (UniProt P35626); conditions: Compound concentration 1000.0 nM
[29] = molecular target: Serine/threonine-protein kinase BRSK1 (Homo sapiens) (UniProt Q8TDC3); conditions: Compound concentration 1000.0 nM
[30] = test system: Epidermal growth factor receptor (Homo sapiens), P00533 [UNDEFINED MUTATION]; conditions: Compound concentration 1000.0 nM; remark: listed apart in the source
[31] = molecular target: Cyclin-dependent kinase 11B (Homo sapiens) (UniProt P21127); conditions: Compound concentration 1000.0 nM
[32] = molecular target: Insulin-like growth factor 1 receptor (Homo sapiens) (UniProt P08069); conditions: Compound concentration 1000.0 nM
[33] = molecular target: Calcium/calmodulin-dependent protein kinase type 1 (Homo sapiens) (UniProt Q14012); conditions: Compound concentration 1000.0 nM
[34] = molecular target: Serine/threonine-protein kinase SBK1 (Homo sapiens) (UniProt Q52WX2); conditions: Compound concentration 1000.0 nM
[35] = molecular target: Serine/threonine-protein kinase D1 (Homo sapiens) (UniProt Q15139); conditions: Compound concentration 1000.0 nM
[36] = molecular target: Serine/threonine-protein kinase WNK4 (Homo sapiens) (UniProt Q96J92); conditions: Compound concentration 1000.0 nM
[37] = molecular target: Phosphatidylinositol 3-kinase C2 domain-containing subunit gamma (Homo sapiens) (UniProt O75747); conditions: Compound concentration 1000.0 nM
[38] = molecular target: Mitogen-activated protein kinase 15 (Homo sapiens) (UniProt Q8TD08); conditions: Compound concentration 1000.0 nM
[39] = molecular target: Serine/threonine-protein kinase 33 (Homo sapiens) (UniProt Q9BYT3); conditions: Compound concentration 1000.0 nM
[40] = molecular target: Tyrosine-protein kinase JAK2 (Homo sapiens) (UniProt O60674); conditions: Compound concentration 1000.0 nM
[41] = molecular target: Serine/threonine-protein kinase NIM1 (Homo sapiens) (UniProt Q8IY84); conditions: Compound concentration 1000.0 nM
[42] = molecular target: Tyrosine-protein kinase receptor UFO (Homo sapiens) (UniProt P30530); conditions: Compound concentration 1000.0 nM
[43] = molecular target: Muscarinic acetylcholine receptor M5 (Homo sapiens) (UniProt P08912); conditions: Compound concentration 10.0 uM

Sequence of Epidermal growth factor receptor (Homo sapiens), P00533 [UNDEFINED MUTATION] (P00533 whole entry, looked up, change not shown): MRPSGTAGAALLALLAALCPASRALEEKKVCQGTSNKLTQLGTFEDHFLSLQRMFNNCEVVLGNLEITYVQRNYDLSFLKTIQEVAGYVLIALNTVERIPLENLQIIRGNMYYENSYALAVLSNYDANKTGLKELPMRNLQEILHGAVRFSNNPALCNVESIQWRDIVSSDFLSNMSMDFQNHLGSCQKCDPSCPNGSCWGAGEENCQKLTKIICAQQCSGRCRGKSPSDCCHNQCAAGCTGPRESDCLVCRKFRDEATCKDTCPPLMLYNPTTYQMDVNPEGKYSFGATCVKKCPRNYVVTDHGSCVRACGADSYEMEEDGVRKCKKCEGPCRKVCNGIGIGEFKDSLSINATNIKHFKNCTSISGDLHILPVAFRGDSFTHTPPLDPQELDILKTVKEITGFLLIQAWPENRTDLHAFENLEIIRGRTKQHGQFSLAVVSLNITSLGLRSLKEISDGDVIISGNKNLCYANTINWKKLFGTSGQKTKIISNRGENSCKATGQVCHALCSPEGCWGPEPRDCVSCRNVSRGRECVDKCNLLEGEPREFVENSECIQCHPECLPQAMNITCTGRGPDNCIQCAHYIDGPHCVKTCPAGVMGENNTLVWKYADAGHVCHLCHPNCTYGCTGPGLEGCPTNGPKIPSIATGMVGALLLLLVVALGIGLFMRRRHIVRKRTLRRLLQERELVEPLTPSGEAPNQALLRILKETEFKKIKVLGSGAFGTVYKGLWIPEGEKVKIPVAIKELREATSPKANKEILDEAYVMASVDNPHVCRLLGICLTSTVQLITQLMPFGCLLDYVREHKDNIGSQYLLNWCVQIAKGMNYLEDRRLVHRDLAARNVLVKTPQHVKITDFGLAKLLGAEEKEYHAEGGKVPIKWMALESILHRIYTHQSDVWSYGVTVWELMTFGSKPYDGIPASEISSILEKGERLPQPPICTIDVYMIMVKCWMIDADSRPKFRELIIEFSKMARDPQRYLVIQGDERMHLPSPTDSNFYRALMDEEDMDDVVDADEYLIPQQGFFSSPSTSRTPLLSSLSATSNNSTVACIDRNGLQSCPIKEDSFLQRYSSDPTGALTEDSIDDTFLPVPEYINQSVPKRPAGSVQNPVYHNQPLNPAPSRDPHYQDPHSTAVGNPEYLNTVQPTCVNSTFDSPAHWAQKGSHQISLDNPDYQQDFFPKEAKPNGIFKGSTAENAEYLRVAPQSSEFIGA
Sequence of Serine/threonine-protein kinase 33 (Homo sapiens) (Q9BYT3 whole entry, looked up): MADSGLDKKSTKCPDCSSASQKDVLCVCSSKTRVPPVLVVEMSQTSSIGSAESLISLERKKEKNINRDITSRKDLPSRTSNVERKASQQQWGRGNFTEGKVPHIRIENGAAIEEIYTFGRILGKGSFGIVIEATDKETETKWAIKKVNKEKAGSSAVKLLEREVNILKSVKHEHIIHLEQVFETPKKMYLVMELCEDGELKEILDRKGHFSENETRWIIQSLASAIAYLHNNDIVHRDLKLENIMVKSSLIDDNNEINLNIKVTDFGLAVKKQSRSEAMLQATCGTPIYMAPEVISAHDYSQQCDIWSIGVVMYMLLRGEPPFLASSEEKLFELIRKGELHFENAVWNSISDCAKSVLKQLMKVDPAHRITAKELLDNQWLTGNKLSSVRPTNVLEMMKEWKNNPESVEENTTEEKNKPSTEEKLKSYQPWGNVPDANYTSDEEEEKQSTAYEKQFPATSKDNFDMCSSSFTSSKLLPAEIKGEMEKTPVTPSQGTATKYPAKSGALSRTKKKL
Sequence of Discoidin domain-containing receptor 2 (Homo sapiens) (Q16832 whole entry, the tested form may be a part, canonical isoform): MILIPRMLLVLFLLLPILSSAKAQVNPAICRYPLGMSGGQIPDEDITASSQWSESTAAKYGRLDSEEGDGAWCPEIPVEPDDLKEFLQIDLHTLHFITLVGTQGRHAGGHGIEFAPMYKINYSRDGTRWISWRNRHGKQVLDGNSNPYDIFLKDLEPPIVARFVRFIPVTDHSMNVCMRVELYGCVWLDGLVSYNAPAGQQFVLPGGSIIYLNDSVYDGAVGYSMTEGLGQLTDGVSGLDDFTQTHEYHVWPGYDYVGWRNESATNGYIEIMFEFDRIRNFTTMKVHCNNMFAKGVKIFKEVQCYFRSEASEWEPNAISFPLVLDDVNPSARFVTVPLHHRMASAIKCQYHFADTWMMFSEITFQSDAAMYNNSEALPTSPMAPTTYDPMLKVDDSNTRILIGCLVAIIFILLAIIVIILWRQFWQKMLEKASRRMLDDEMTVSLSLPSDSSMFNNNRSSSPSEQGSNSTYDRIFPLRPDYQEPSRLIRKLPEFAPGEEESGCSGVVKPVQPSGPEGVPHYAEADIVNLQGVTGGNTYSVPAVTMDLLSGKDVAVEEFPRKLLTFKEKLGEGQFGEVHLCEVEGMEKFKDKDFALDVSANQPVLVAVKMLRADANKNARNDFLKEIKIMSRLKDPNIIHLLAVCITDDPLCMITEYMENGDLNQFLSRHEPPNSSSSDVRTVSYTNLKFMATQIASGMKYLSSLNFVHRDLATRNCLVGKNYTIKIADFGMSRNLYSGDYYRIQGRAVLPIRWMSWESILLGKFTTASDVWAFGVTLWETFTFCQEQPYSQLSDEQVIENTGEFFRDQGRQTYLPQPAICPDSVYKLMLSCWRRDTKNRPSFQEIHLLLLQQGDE
Sequence of Serine/threonine-protein kinase D1 (Homo sapiens) (Q15139 whole entry): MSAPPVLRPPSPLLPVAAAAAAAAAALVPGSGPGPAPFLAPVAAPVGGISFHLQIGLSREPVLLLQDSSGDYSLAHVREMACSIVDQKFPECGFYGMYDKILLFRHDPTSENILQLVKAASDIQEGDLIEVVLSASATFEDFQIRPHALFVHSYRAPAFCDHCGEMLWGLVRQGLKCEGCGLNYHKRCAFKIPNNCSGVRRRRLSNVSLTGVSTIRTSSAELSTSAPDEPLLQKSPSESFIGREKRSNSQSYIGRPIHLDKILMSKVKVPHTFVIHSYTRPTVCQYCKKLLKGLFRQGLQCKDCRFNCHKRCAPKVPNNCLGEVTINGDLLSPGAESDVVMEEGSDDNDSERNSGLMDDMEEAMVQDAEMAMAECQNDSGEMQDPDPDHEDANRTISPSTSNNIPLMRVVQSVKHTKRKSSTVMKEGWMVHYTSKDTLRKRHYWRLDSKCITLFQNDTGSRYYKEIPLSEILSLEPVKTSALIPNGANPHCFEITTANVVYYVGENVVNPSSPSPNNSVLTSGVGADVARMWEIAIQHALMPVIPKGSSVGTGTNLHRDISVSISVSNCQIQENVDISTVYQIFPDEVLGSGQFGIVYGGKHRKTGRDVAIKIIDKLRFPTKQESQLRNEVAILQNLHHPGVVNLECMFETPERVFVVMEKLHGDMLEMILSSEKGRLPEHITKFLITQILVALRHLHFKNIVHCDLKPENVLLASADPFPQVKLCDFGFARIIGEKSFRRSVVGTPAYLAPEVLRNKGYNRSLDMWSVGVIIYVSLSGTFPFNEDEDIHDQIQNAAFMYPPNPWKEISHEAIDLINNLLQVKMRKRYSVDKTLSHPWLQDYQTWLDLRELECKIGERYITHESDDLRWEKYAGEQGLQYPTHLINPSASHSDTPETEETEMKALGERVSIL
Sequence of Mitogen-activated protein kinase 12 (Homo sapiens) (P53778 whole entry): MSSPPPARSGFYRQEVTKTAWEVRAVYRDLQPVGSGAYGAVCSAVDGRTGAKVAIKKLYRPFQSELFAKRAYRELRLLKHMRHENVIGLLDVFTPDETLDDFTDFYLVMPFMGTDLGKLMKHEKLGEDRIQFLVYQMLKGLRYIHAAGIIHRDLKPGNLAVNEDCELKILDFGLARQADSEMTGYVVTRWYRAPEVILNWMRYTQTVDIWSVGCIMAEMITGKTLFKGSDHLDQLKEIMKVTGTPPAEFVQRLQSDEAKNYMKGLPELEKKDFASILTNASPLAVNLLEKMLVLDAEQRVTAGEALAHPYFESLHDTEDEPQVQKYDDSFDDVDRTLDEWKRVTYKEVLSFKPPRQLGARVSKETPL
Sequence of Ephrin type-A receptor 6 (Homo sapiens) (Q9UF33 whole entry): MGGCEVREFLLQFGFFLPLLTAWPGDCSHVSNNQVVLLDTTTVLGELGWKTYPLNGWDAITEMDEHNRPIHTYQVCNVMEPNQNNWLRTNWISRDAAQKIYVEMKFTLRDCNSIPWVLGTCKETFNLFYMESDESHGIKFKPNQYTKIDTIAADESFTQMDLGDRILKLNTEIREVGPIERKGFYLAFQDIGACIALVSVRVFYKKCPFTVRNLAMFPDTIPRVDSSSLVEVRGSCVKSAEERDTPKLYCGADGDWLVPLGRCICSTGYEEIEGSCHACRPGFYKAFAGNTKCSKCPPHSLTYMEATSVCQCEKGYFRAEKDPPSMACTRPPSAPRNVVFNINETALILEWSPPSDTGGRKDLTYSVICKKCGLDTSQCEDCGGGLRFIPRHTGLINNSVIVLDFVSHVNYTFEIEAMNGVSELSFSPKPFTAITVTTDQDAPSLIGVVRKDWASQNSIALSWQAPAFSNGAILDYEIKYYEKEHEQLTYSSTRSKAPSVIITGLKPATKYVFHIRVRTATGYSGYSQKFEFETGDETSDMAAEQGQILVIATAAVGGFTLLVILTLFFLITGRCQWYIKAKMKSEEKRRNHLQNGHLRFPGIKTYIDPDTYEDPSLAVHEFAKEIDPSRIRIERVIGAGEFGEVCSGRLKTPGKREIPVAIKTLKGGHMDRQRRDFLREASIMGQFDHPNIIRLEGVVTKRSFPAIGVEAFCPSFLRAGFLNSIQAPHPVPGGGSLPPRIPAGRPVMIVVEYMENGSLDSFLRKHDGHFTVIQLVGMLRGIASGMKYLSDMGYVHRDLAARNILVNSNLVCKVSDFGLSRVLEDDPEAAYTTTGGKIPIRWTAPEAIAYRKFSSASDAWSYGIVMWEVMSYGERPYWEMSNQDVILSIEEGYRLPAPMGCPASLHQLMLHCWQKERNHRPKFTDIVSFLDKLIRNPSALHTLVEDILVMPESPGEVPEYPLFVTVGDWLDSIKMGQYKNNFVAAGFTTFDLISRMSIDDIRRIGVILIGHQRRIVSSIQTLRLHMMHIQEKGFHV

CN([C@@H]1CCc2c(CC(=O)O)c3cc(S(C)(=O)=O)ccc3n2C1)S(=O)(=O)c1ccc(F)cc1
inactive: residual activity [1] 88% | residual activity [2] 100% | residual activity [3] 88% | residual activity [4] 84% | residual activity [5] 100% | residual activity [6] 100% | residual activity [7] 100% | residual activity [8] 100% | residual activity [9] 80% | residual activity [10] 93% | residual activity [11] 100% | residual activity [12] 100% | residual activity [13] 100% | residual activity [14] 93% | residual activity [15] 100% | residual activity [16] 100% | residual activity [17] 87% | residual activity [18] 100% | residual activity [19] 91% | residual activity [20] 93% | residual activity [21] 91% | residual activity [22] 85% | residual activity [23] 66% | residual activity [24] 100% | residual activity [25] 72% | residual activity [26] 100% | inhibition [27] 10.8% | residual activity [28] 81% | residual activity [29] 94% | residual activity [30] 100% | residual activity [31] 100% | residual activity [32] 98% | residual activity [33] 80% | residual activity [34] 100% | residual activity [35] 75% | residual activity [36] 100% | residual activity [37] 82% | residual activity [38] 100% | residual activity [39] 99% | residual activity [40] 100% | residual activity [41] 100% | residual activity [42] 100% | inhibition [43] -6.18%

CN([C@@H]1CCc2c(CC(=O)O)c3ccccc3n2C1)S(=O)(=O)c1ccc(F)cc1 [MK-7246]
inactive: residual activity [1] 81% | residual activity [2] 100% | residual activity [3] 98% | residual activity [4] 86% | residual activity [5] 94% | residual activity [6] 94% | residual activity [7] 100% | residual activity [8] 100% | residual activity [9] 100% | residual activity [10] 100% | residual activity [11] 100% | residual activity [12] 88% | residual activity [13] 100% | residual activity [14] 100% | residual activity [15] 100% | residual activity [16] 100% | residual activity [17] 100% | residual activity [18] 94% | residual activity [19] 100% | residual activity [20] 87% | residual activity [21] 91% | residual activity [22] 100% | residual activity [23] 62% | residual activity [24] 100% | residual activity [25] 98% | residual activity [26] 100% | inhibition [27] 22.4% | residual activity [28] 70% | residual activity [29] 100% | residual activity [30] 100% | residual activity [31] 100% | residual activity [32] 100% | residual activity [33] 100% | residual activity [34] 100% | residual activity [35] 100% | residual activity [36] 100% | residual activity [37] 95% | residual activity [38] 100% | residual activity [39] 100% | residual activity [40] 100% | residual activity [41] 100% | residual activity [42] 100% | inhibition [43] 6.97%
